Reference: patent publication US20240082184A1, “IMPROVED TREATMENT FOR GLOBOID CELL LEUKODSYTROPHY OR KRABBE DISEASE” (priority 2021, published 2024)

Legend:
Type in all cases: in vivo
[1] = test system: GALC−/− mice; test: Luxol fast blue (LFB) staining for myelin; conditions: cerebellum and corpus callosum, oral, 15 days
Excerpt: Cerebellar and corpus callosum sections of paraformaldehyde-fixed brain tissues were stained with Luxol fast blue for myelin as described elsewhere. […] FIG. 5 similarly depicts luxol fast blue (LFB) staining of myelin in the cerebellum (A) and corpus callosum (B) of GALC^−/− mice following identical treatment. Results represent analysis of two different sections of each of five mice (n=5) per group. […] FIG. 13 similarly depicts luxol fast blue (LFB) staining of myelin in the cerebellum (A) and corpus callosum (B) of GALC^−/− mice following identical treatment. Results represent analysis of two different sections of each of five mice (n=5) per group.

[2] = test system: GALC−/− mice; test: Open field locomotor activity; conditions: oral, 15 days
Method: The open field test was conducted for analyzing general motor activities of mice. Locomotor activities were monitored by open field performance and footprint analysis as described in previous studies. […] Mice were placed in the center of a square wooden open field arena (40×40 cm, 30 cm high walls) and allowed to explore freely for 5 min. The movements of the mice were recorded using a camera linked to the Noldus system and EthoVisionXT software. Several parameters including velocity, total distance moved, movement/center point frequency, body elongation, etc. were analyzed to assess the general locomotor activity.
Following 15 days of treatment, open field locomotor activities were measured. […] Parameters related to movement of animals were obtained from the software and presented as velocity center point (B), distance moved center point (C), movement-center point frequency (D), and body elongation (E).
Locomotor activity was monitored as in Example 5. Following 15 days of treatment, open field locomotor activities were measured. […] Parameters related to movement of animals were obtained from the software and presented as velocity center point (B), distance moved center point (C), movement-center point frequency (D), and body elongation (E).

[3] = test system: GALC−/− mice; test: Immunofluorescence (immunostaining) of brain sections for PLP, MFI; conditions: cerebellum and corpus callosum, oral, 15 days
Method: After 2 weeks of treatment, mice were anesthetized and perfused with PBS (pH 7.4) and then with 4% (w/v) paraformaldehyde solution in PBS. […] Briefly, brains were incubated in PBS containing 0.05% Tween 20 (PBST) and 10% sucrose for 3 h and then 30% sucrose overnight at 4° C. Hemisected brains was then embedded in O.C.T (Tissue Tech) at −80° C. and processed for conventional cryosectioning. Frozen cerebellar and corpus callosum sections (40 micron thick) were treated with cold ethanol (−20° C.) followed by two rinses in PBS, blocking with 3% bovine serum albumin in PBST and labeling with anti-PLP antibody. After three washes in PBST, sections were further incubated with Cy5 (Jackson ImmunoResearch Laboratories, Inc.). The samples were mounted and observed under the Olympus BX41 fluorescent microscope equipped with a Hamamatsu ORCA-03G camera. Captured images were calibrated with the scale bar and then opened in ImageJ software for further quantification analysis. […] The final MFI was analyzed after subtracting the value with the background signal of respective images.
DAPI was used to visualize nucleus. Mean fluorescence intensity (MFI) of PLP was quantified (C, cerebellum; D, corpus callosum) in two different sections of each of five mice (n=5) per group. […]

[4] = test system: GALC−/− mice; test: Lifespan (percentage of survival, Kaplan-Meier plot); conditions: oral
Excerpt: Heterozygous animals were used only for breeding purposes and were not used in the study. Animal maintaining and experiments were in accordance with National Institute of Health guidelines and were approved by the Institutional Animal Care and Use committee of the Rush University of Medical Center, Chicago, IL. Treated and untreated mice were allowed to survive humanely as long as possible. When a mouse reached a moribund stage, it was sacrificed.
As discussed below, after 2 weeks of oral feeding, several parameters were monitored including locomotor activity followed by examining myelin status and glial activation in cerebellum and corpus callosum. Longevity of GALC^−/− mice after drug treatment was also examined. In that case, GALC^−/− mice were treated with the drugs daily until mice reached the moribund stage.
Mice were treated continually until they reached the moribund stage at which point they were humanely sacrificed.

[5] = test system: GALC−/− mice; test: Levels of myelin proteins PLP and MBP in brain by Western blot; conditions: gemfibrozil 8 mg/kg/d alone or with vitamin A 150 IU/kg/d
[6] = test system: GALC−/− mice; test: Astroglial activation: GFAP and iNOS levels in brain by Western blot; conditions: gemfibrozil 8 mg/kg/d alone or with vitamin A 150 IU/kg/d, oral, 15 days
[7] = cerebellum, oral gavage, 15 days from 10 d of age, FIG. 2
[8] = corpus callosum, oral, 15 days, FIG. 3

SMILES | myelin status by luxol fast blue (LFB) staining ([1]; cinnamic acid 25 and 50 mg/kg/day, FIG. 13) | motor activity in open field versus vehicle treatment ([2]; cinnamic acid 25 and 50 mg/kg/day, FIG. 16) | myelin status by PLP immunostaining (MFI of PLP) ([3]; cinnamic acid 25 and 50 mg/kg/day, FIG. 12) | lifespan (percentage of survival) ([4]; cinnamic acid 25 and 50 mg/kg/day, until moribund stage, FIG. 17) | myelin status by luxol fast blue (LFB) staining ([1]; gemfibrozil 8 mg/kg/d alone or with vitamin A 150 IU/kg/d, FIG. 5) | motor activity in open field versus vehicle treatment ([2]; gemfibrozil 8 mg/kg/d alone or with vitamin A 150 IU/kg/d, FIG. 8) | myelin status by PLP immunostaining (MFI of PLP) ([3]; gemfibrozil 8 mg/kg/d alone or with vitamin A 150 IU/kg/d, FIG. 4) | level of MBP (MBP/Actin relative to control) [5, 7] | level of PLP (PLP/Actin relative to control) [5, 7] | level of MBP (MBP/Actin relative to control) [5, 8] | level of PLP (PLP/Actin relative to control) [5, 8] | level of GFAP (GFAP/Actin relative to control) ([6]; cerebellum, FIG. 6) | level of iNOS (iNOS/Actin relative to control) ([6]; cerebellum, FIG. 6) | level of GFAP (GFAP/Actin relative to control) ([6]; corpus callosum, FIG. 7) | level of iNOS (iNOS/Actin relative to control) ([6]; corpus callosum, FIG. 7) | lifespan (percentage of survival) ([4]; gemfibrozil 8 mg/kg/d alone or with vitamin A 150 IU/kg/d, daily until moribund stage, FIG. 9)
O=C(O)C=Cc1ccccc1 [cinnamic acid] | protection of myelin | increased | protecting myelin | increases the lifespan | – | – | – | – | – | – | – | – | – | – | – | –
Cc1ccc(C)c(OCCCC(C)(C)C(=O)O)c1 [gemfibrozil] | – | – | – | – | protection of myelin | increased | protecting myelin | significantly increased | significantly increased | significantly increased | significantly increased | significantly reduced | significantly reduced | significantly reduced | significantly reduced | increase the lifespan
